Where no end group is shown, it is not given here. [ ]: non-standard residue; d: D form. Hyp = O=C(O)[C@@H]1C[C@@H](O)CN1
Columns and labels:
CLAVATA 1 (CLV1) = settings: ref Brand et al., 2000; Clark et al., 1995; Fletcher et al., 1999; cited from earlier work
Source text: (§1) The endogenous CLAVATA3/EMBRYO SURROUNDING REGION (CLE) peptides of plants are secreted as propeptides and processed to yield bioactive 12-14 amino acid long ligands ([Cock and McCormick, 2001]; [Ito et al., 2006]; [Kondo et al., 2006]). The Arabidopsis thaliana genome contains 32 CLE genes, which encode 27 distinct CLE peptides ([Goad et al., 2016]; [Ito et al., 2006]; [Strabala et al., 2006]). Exogenous application of chemically synthesized CLE peptides at nanomolar concentrations frequently suppresses Arabidopsis root growth in tissue culture ([Depuydt et al., 2013]; [Fiers et al., 2005]; [ ...

[1] = system: PXY ectodomain with NIK1/2/3 ectodomains; test: Analytical size-exclusion chromatography, PXY + NIK1/2/3 ectodomains; assay type: binding, Arabidopsis thaliana; settings: Fig. S3F; 50 µM peptide; pH 5.0
Procedure: (§2) Isolation of recombinant proteins and analytical gel filtrations were carried out as described previously ([Hazak et al., 2017]) with small adjustments. The coding sequences for BAM1-ECD (amino acids 20-637), BAM3-ECD (30-651), PXY-ECD (30-647), NIK1-ECD (32-248), NIK2-ECD (33-248), NIK3-ECD (26-238), CLERK-ECD (28-236) and At5G63710-ECD (51-224) were amplified from Arabidopsis thaliana cDNA using PfuX7 polymerase. All ECD-coding sequences were then cloned into a modified pFAST-BAC1 vector (Geneva Biotech) by GIBSON cloning, resulting in the addition of the azurocidin signal peptide sequence to the 5′-end, and of a 2×-STREP-9×HIS tag to the 3′-end of the ECD sequences. These plasmids, after being confirmed by sequencing, were transformed into Escherichia coli DH10MultiBac (Geneva Biotech) followed by the extraction of the resulting bacmids. Transfection of the bacmids into Spodoptera frugiperda Sf9 cells with Profectin (AB Vector) was carried out to produce and amplify the respective virus. Recombinant secreted expression of the proteins was carried out by addition of virus to Trichoplusia ni Tnao38 cells to reach a viral multiplicity of 1 and incubation of the cells for 3 days. […] Concentrations of the pure proteins were assessed by measuring their absorbance at 280 nm (NanoDrop Lite; Thermo Scientific) and subsequent correction with their respective extinction coefficient. […]

[2] = system: PXY ectodomain with CLERK/At5g63710 ectodomains; test: Analytical size-exclusion chromatography, PXY + CLERK/At5g63710 ectodomains; assay type: binding, Arabidopsis thaliana; settings: 50 µM peptide
Procedure: as §2

SERKs with PXY = settings: ref Hazak et al., 2017; Santiago et al., 2016; Zhang et al., 2016a,b; cited from earlier work
Source text: In numerous cases, ligand sensing by LRR-RKs requires interaction with co-receptor kinases ([Brandt and Hothorn, 2016]; [Hazak and Hardtke, 2016]; [Katsir et al., 2011]; [Li and Tax, 2013]). […] SERKs have also been implicated in PXY-mediated CLE41/44 signaling, although binding of PXY-CLE41/44 to ...

[3] = system: PHLOEM INTERCALATED WITH XYLEM (PXY); settings: ref Etchells and Turner, 2010; Fisher and Turner, 2007; Hirakawa et al., 2008; Morita et al., 2016; cited from earlier work
Source text: as §1

[4] = target: T1, BARELY ANY MERISTEM 1 (BAM1) ectodomain (Arabidopsis thaliana, UniProt O49545 20-637); test: ITC; Nano ITC, 25°C, 20 mM citrate (pH 5.0), 150 mM NaCl; peptide in the syringe, ectodomain in the cell: 400 µM CLE26 or CLE45 into 30 µM CLERK-ECD; 80 µM CLE9 into 13.8 µM BAM1-ECD; settings: both partners purified
T1 construct: BAM1, LRR receptor kinase of Arabidopsis thaliana, extracellular domain, amino acids 20-637; The azurocidin signal peptide was added at the N-terminus for secretion; also called BAM1-ECD
T1 sequence (looked up): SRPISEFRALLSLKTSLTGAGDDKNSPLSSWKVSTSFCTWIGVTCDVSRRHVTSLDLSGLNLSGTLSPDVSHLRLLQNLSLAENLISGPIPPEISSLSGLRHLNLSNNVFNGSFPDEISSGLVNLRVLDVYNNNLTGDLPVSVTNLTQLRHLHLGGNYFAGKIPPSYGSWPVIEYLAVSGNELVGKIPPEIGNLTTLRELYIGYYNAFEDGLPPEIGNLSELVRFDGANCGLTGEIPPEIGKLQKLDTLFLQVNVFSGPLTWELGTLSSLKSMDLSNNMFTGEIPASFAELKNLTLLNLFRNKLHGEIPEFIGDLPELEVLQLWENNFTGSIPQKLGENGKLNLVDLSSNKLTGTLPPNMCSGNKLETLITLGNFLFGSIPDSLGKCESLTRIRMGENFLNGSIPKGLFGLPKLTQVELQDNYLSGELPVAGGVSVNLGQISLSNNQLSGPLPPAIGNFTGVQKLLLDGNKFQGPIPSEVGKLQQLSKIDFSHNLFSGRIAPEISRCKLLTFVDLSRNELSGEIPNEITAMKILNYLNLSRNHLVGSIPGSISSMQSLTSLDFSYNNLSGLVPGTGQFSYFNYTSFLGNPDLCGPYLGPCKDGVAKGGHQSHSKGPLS

[5] = target: T2, BARELY ANY MERISTEM 1 (BAM1) ectodomain (Arabidopsis thaliana, UniProt O49545 20-637); test: ITC
T2 chain: T1 sequence (looked up)

CLV3: prototypical CLV3 peptide, directly bound by CLV1 to regulate stem cell homeostasis in shoot meristems (RTVPSGPDPLHHH; not fully specified; ends and bridges not checked; UniProt Q9XF04 70-82, looked up)
Binding to CLV1 (CLAVATA 1 (CLV1)): directly binds

HEVPSGPNPISN [CLE41, identical CLE41 and CLE44 peptides, perceived by PXY]
Elution of PXY ectodomain with NIK1/2/3 ectodomains [1]: elute as monomers | Elution of PXY ectodomain with CLERK/At5g63710 ectodomains ([2]; Fig. S3C, pH 5.0): elute as monomers | Peptide-dependent binding of CLERK ectodomain to PXY ectodomain ([2]; gel filtration, 20 mM citrate (pH 5.0), 150 mM NaCl): Neither did CLERK ectodomain bind to the BAM1 ectodomain or the PXY ectodomain | Binding of PXY-CLE41/44 to SERKs (SERKs with PXY): comparatively weak | Perception by PXY [3]: perceives

B1: CLE9 peptide (peptide)
peptide: RLV[Hyp]SG[Hyp]NPLHN
notes: CLE9 peptide of Arabidopsis thaliana, 12 residues; source: synthetic peptide (PSL GmbH)
binding result [4]: binds | Kd [5]: 0.0127 µM
